Results on three molecules are retold here after patent US11247987B2, “Inhibiting ubiquitin specific peptidase 30” (FORMA Therapeutics, Inc., priority 2017, dated 2022).

Molecules are shown by their SMILES.

This assay has as its target T1, human recombinant USP30 (Homo sapiens, UniProt Q70CQ3).
T1 construct: purchased Boston Biochem E-582
T1 sequence (Q70CQ3 1-517): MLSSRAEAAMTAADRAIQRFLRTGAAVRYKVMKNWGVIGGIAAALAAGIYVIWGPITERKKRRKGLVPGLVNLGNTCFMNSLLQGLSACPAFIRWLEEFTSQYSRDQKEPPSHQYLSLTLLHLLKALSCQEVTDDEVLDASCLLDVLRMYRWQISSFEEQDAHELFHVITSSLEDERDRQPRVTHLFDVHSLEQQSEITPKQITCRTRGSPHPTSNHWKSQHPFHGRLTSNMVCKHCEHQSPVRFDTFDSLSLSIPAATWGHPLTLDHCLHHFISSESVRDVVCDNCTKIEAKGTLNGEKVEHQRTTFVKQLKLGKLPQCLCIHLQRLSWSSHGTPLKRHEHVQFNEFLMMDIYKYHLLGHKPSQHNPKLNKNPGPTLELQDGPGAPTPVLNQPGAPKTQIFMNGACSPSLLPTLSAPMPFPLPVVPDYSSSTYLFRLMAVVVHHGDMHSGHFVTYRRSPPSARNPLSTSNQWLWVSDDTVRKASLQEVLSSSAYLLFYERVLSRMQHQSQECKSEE
The assay is described as follows: Ubiquitin-Rhodamine 110 Assay for USP30 Activity (USP30 Inhibitor Biochemical Assay). Conditions: 0.2 nM USP30, 25 nM Ub-Rh110, 30 min preincubation, 30 min at room temperature; read-out: USP30 potency range (USP30 biochemical IC50 assay, IC50 ranges). The method in brief: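 Human recombinant USP30 (0.2 nM final) was preincubated 30 min with compound (25 μM to 1.3 nM, 10-point) in Tris pH 8.0, 1 mM GSH, BGG and Triton X-100. Ub-Rh110 was then added for 30 min at room temperature and stopped with citric acid. Fluorescence at 485/535 nm gave % inhibition and a 4-parameter IC50 fit.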
As for `CC(C)(C)c1cnc(NC(=O)[C@H]2CC[C@@H](NC#N)C2)s1` [Compound 12-7, (1S,3R)-N-(5-tert-butyl-1,3-thiazol-2-yl)-3-(cyanoamino)cyclopentane-1-carboxamide], the IC50 lay in the range of 1 to 10 µM.

Turning to `N#CN[C@H]1CCN(C(=O)c2csc(-c3cccc(Cl)c3Cl)n2)C1` [Compound 12-8, {[(3S)-1-[2-(2,3-dichlorophenyl)-1,3-thiazole-4-carbonyl]pyrolidin-3-yl]amino}carbonitrile], the IC50 lay in the range of 1 to 10 µM.

In the case of `N#CNC1CCN(C(=O)c2csc(-c3ccc(Cl)cc3Cl)n2)CC1` [Compound 12-9, ({1-[2-(2,4-dichlorophenyl)-1,3-thiazole-4-carbonyl]piperidin-4-yl}amino)carbonitrile], the IC50 lay in the range of 1 to 10 µM.

The IC50 is the concentration needed to halve the response being measured.
